Assay results as given in patent publication US20100267638A1, “EXOSITE-DIRECTED THROMBIN INHIBITORS” (CLEVELAND STATE UNIVERSITY, priority 2003, published 2010).
pIC50, pKi: −log10 of the molar value. Entries after “also recorded” stand apart in the source; their conditions may differ. No end group written: not given here.

Assays:
prothrombinase = target: T1, prothrombinase (Homo sapiens, UniProt P00734); experiment: Assay measuring thrombin formation (prothrombinase inhibition by peptides, DAPA fluorescence); format: biochemical
T1 construct: purchased Haematologic Technologies Inc. (Essex Junction, Vt.)

[1] = target: T2, active-site-immobilized thrombin (Homo sapiens, UniProt P00734); experiment: Direct binding of the peptides to thrombin-agarose (chromatography); details: 400 μg peptide, 2.5 ml column, elution 2M NaCl
T2 construct: Factor Xa cleaves prothrombin to form thrombin; purchased Haematologic Technologies Inc. (Essex Junction, Vt.)
Protocol: Direct binding of the peptides to thrombin. Thrombin was immobilized onto agarose through the active site as described. Peptide solutions of HC1-HC5 (SEQ ID NO. 2-6, respectively), D13R (SEQ ID NO. 21), DYDYQ (SEQ ID NO. 11), and P15H (SEQ ID NO. 22) were dissolved in water to a given concentration and then diluted in 20 mM Hepes, 0.1 M NaCl, pH 7.4 in a manner that 400 μg was contained in each starting solution. In control experiments it was determined that the maximum amount of peptide that could be retained by the thrombin-agarose column was 400 μg. Since some of the peptides contain aromatic amino acid residues, their concentration was also measured by optical density.
Mass spectrometry instruments and conditions. The identity of all peptides found in the flow-through or the elution of the thrombin-agarose column was verified by mass spectrometry. Since the peptides were in a buffer solution, we used Liquid Chromatography/Mass Spectrometry (LC/MS) for their identification. In this procedure peptides are first separated from the salt content of the buffer using an HPLC system (HP 1100, HPLC gradient system, Agilent Technologies, Palo Alto Calif.) with a C18 column (1 mm×15 cm, GraceVydac, Hesperia Calif.) with buffers A (0.3% acetic acid in water) and B (0.3% acetic acid in acetonitrile). The elution of the column was monitored with a Micromass Quatro II ESI-Triple Quadrupole Mass Spectrometer (Waters, Milford Mass.). The data were collected using a Compaq Professional Workstation AP200 (Hewlett-Packard, Palo Alto Calif.) and analyzed by the software MassLynx v3.3 (Waters, Milford Mass.).
Direct interaction of hirudin-like peptides from factor tor Va heavy chain With thrombin-agarose. To ascertain that the peptides of interest are inhibitory of prothrombinase activity and contain a binding site for thrombin, the interaction of all peptides with active-site-immobilized thrombin was studied in chromatographic experiments and is shown in FIG. 5. In FIG. 5, small scale chromatography of hirudin-like peptides was performed on a 2.5 ml thrombin-agarose. Each run represents 400 μg of peptide. This amount of peptide was determined to saturate the specific sites of thrombin of the column used (2.5 ml). Elution was performed with 2M NaCl and was started at the point indicated by the arrow (fraction #30). The presence of the peptides in the corresponding fractions was monitored by absorbance at 280 nm (shown on the y axis) and by LC/MS (inset). […] Specifically, these peptides were treated similarly to all other peptides and similar fractions were collected. Aliquots from fractions #7 and #35 from each separate experiment were submitted to LC/MS analysis as described herein (depicted by the hatched arrows at the bottom of the chromatogram). The results from tube #7 from three chromatograms are depicted. The data are presented as % intensity of the signal as a function of the mass of the peptide divided by the charge (m/z). FIG. 5A, HC1 (Mr calculated 1268); FIG. 5B, HC2 (Mr calculated 1132); FIG. 5C, HC5 (Mr calculated 1053). The spectrum of HC1 has two major peaks: at 635.5 and at 424, and one minor peak at 1270 (1268+1). The peak at 635.5 represents the peptide (mass/charge) with two positive charges ([…]) i.e. [(1268+2=1270)]/2=635 whereas, the peak at 424 represents HC1 with three positive charges ([…]) i.e. [(1268+3=1271)]/3=424. […] HC5 spectrum has two major peaks: one at 528 and one at 352. The peak at 528 represents the peptide with two positive charges ([…]) i.e. [(1053+2=1055)]/2=527.5 while, the other peak represents HC5 with three positive charges ([M+31-]^2+) i.e. [(1053+3=1056)]/3=352. The minor peak at 1054 represents the peptide with one charge. It is noteworthy, that in gas phase the number of protons attached to each peptide depends on the number (quantity) of basic residues contained in each peptide. […] Thus, HC1 and HC5 are more likely to bind two or three protons than HC2. […]

concentration at which complete inhibition of prothrombinase occurred (prothrombinase; FIG. 3A): 40 µM
pKi (prothrombinase; calculated from IC50 of 1.6 μM as in FIG. 2C legend, read-out: Ki for inhibition of prothrombinase): 6.07
pIC50 (prothrombinase; factor Va 4 nM, factor Xa 10 nM, prothrombin 350 nM, PCPS 10 μM, peptide preincubated with factor Va): 5.80
Substance: DYDYQ [DYDYQ, Asp-Tyr-Asp-Tyr-Gln]
inhibition of prothrombinase activity with increasing peptide (prothrombinase; FIG. 10A, up to 8000 nM): decrease in the activity of prothrombinase
interaction with immobilized thrombin (thrombin-agarose) [1]: eluted from the column with high-salt buffer; also recorded: interact with immobilized thrombin
